Where no end group is shown, it is not given here.
Key:
[1] = Learned helplessness test (LHT); assay type: in vivo; settings: mice, bolus of 100 μL of a 10^-6 M solution 30 minutes before conditioning, FIG. 4
Protocol: Learned resignation or learned helplessness is a model based on the repeated administration of electric shocks to induce a resigned state in the animal.
The apparatus comprises two compartments separated by a sliding door and with a floor consisting of a metal grid through which the electrical pulses are administered. The learned helplessness protocol is divided into two stages, an animal conditioning stage and a test stage.
The conditioning was carried out over a period of four days during which time the mice received 360 non-avoidable electric shocks of 0.3 mA for one hour (the door, separating the two compartments, being closed). The shocks lasted for 2 seconds and an interval of 8 seconds was respected between each shock. This conditioning step leads to a phenomenon of helplessness in animals.
On the day of the test, the mice were placed in the same compartments but with a possibility of escaping the shock. The test counted 30 trials. During the administration of the shock, the door separating the two compartments opened, allowing the animals to flee. When the animal changes compartment the test is finished and the shock stops. […] This test made it possible to record the escape latencies of the animals. The thirty tests were then grouped by 5 and the average escape time was calculated. […]

TREK-1 channel = biological target: T1, TREK-1 channel (Homo sapiens, UniProt O95069); test: Whole-cell patch clamp of TREK-1 channel activity in hTREK-1/HEK293 cells; assay type: cell-based; set-up: expressed in transfected cells; settings: dose-response measured at 0 mV, sigmoidal fit, FIG. 2; read-out: half-effect concentration (IC50) of TREK-1 channel activity inhibition
T1 sequence (O95069 1-426): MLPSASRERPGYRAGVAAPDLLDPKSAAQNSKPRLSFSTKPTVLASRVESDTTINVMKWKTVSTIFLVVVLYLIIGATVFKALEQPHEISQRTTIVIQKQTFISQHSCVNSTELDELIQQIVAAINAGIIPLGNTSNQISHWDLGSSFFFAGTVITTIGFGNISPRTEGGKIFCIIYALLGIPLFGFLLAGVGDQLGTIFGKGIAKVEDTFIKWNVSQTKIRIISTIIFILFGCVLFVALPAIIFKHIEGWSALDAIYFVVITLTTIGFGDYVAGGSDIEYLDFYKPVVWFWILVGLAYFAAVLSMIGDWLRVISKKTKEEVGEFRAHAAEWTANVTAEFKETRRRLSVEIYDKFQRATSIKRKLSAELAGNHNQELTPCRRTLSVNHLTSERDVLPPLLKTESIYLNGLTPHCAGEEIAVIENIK
Protocol: All experiments measuring the effect of spadin analogs and spadin were performed on ßTC3 or LNCaP or HEK293 cells stably transfected with the TREK-1 channel, hTREK-1/HEK293. The hTREK-1/HEK293 cell line was prepared in the laboratory. These cells also express a reporter gene: E-Green Fluorescent Protein (EGFP) enabling their visualization.
These cells were seeded at a density of 20,000 cells/dish of 35 mm diameter, 24 to 72 hours before being used.
The HEK293 cells were cultured in DMEM medium (Gibco)/10% fetal calf serum (FCS, ICN)/1% streptomycin+penicillin mixture (Gibco)/1% glutamax (Gibco)/0.5 mg/mL of G418 (Sigma) at 37° C. in the presence of 5% CO2.
The LNCaP cells were cultured in DMEM medium (Gibco)/10% fetal calf serum (FCS, ICN)/1% streptomycin+penicillin mixture (Gibco)/1% glutamax (Gibco)/at 37° C. in the presence of 5% CO2. […] From day 2 to day 4, the cells were measured by electrophysiological methods.
All measurements were made at room temperature, i.e. at 21-22° C. The hTREK-1/HEK293 cells were identified by the fluorescence emitted by EGFP after excitation at 480 nm. […]
The cell culture medium was replaced with a solution 150 mM NaCl, 5 mM KCl, 3 mM MgCl2, 1 mM CaCl2, 10 mM HEPES/NaOH pH 7.4 containing 10 mM tetraethylammonium chloride, 3 mM 4-aminopyridine. […] The resting potential of the membrane of the measured cell was set at −80 mV. […]

## AVSWGLR [G/A-PE(22-28), AVSWGLR]
[1]
  escape latencies in the learned helplessness test: capable of reducing the escape latencies
TREK-1 channel
  IC50: 0.12 nM
